Test results: PubChem BioAssay (NCI)
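Protocol summary: plate cells (96-well), add compound at 5 concentrations, incubate 48 h, interpolate endpoints linearly. Abbreviation: GI50, concentration required for 50% inhibition of growth. TGI: concentration producing complete growth inhibition.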

Tests used:
Test in all cases: NCI tumour cell line growth inhibition, 48 h
SK-MEL-5 melanoma = tested on: SK-MEL-5 melanoma
HT29 colon = tested on: HT29 colon
SNB-75 CNS = tested on: SNB-75 CNS
SF-295 CNS = tested on: SF-295 CNS
SK-OV-3 ovarian = tested on: SK-OV-3 ovarian
CAKI-1 renal = tested on: CAKI-1 renal
UO-31 renal = tested on: UO-31 renal
HOP-92 NSCLC = tested on: HOP-92 NSCLC
DU-145 prostate = tested on: DU-145 prostate
MDA-MB-231 breast = tested on: MDA-MB-231 breast

SMILES	TGI (SK-MEL-5 melanoma)	TGI (HT29 colon)	TGI (SNB-75 CNS)	TGI (SF-295 CNS)	TGI (SK-OV-3 ovarian)	TGI (CAKI-1 renal)	TGI (UO-31 renal)	TGI (HOP-92 NSCLC)	TGI (DU-145 prostate)	GI50 (SK-MEL-5 melanoma)	GI50 (SF-295 CNS)	GI50 (SK-OV-3 ovarian)	GI50 (CAKI-1 renal)	GI50 (UO-31 renal)	GI50 (MDA-MB-231 breast)	TGI (MDA-MB-231 breast)	GI50 (HT29 colon)	GI50 (DU-145 prostate)	GI50 (HOP-92 NSCLC)
c1ccc2c(c1)C1=NCCN1c1ccccc1-2	6.08 µM	7.85 µM	14.4 µM	31.4 µM	29.9 µM	9.05 µM	18.4 µM	21.7 µM	–	–	–	–	–	–	–	–	–	–	–
CC(C)c1cc(OCC(O)CO)cc(C(C)C)c1 (configuration not stated)	> 100 µM	> 100 µM	> 100 µM	> 100 µM	> 100 µM	> 100 µM	> 100 µM	> 100 µM	–	–	–	–	–	–	–	–	–	–	–
Cc1cccc2nc3cccc(C(=O)NCCN(C)C)c3nc12	1.97 µM	5.44 µM	3.04 µM	14.3 µM	6.74 µM	15.8 µM	1.56 µM	4.12 µM	–	–	–	–	–	–	–	–	–	–	–
N#CC1=C(Cl)NC(Cl)=C(C#N)C1c1c(Cl)cccc1Cl	39.1 µM	> 100 µM	> 100 µM	> 100 µM	88.8 µM	> 100 µM	> 100 µM	80 µM	–	–	–	–	–	–	–	–	–	–	–
O=S(=O)(C/C(=N\O)c1ccccc1)c1ccccc1	> 100 µM	> 100 µM	> 100 µM	> 100 µM	> 100 µM	> 100 µM	> 100 µM	> 100 µM	–	–	–	–	–	–	–	–	–	–	–
O=C(/C=C1/Nc2ccc([N+](=O)[O-])cc2NC1O)c1cccc([N+](=O)[O-])c1 (configuration not stated)	> 100 µM	> 100 µM	> 100 µM	38.3 µM	57.2 µM	> 100 µM	> 100 µM	> 100 µM	–	–	–	–	–	–	–	–	–	–	–
O=C1OC(OCC#CCOC2OC(=O)C(Cl)=C2Cl)C(Cl)=C1Cl (configuration not stated)	43.4 µM	18.1 µM	28.4 µM	60.4 µM	–	–	24 µM	–	38.2 µM	–	–	–	–	–	–	–	–	–	–
Clc1nc(Cl)c2ncn(Cc3ccc(Cn4cnc5c(Cl)nc(Cl)nc54)cc3)c2n1	20.8 µM	16.4 µM	37.6 µM	48.2 µM	> 100 µM	27.8 µM	20.1 µM	–	10 µM	2.13 µM	7.68 µM	> 100 µM	13.6 µM	5.01 µM	3.23 µM	22.4 µM	–	–	–
Cc1cc2c(C)n(Cc3ccc(Cl)cc3Cl)nc2c(C(=O)O)c1C	–	> 100 µM	> 100 µM	> 100 µM	> 100 µM	–	> 100 µM	> 100 µM	–	–	–	–	–	–	–	–	–	–	–
O=[N+]([O-])c1ccc(Cl)cc1C1SCc2nc3ccccc3n21 (configuration not stated)	84.6 µM	> 100 µM	70.7 µM	> 100 µM	> 100 µM	> 100 µM	> 100 µM	–	–	–	–	–	–	–	–	–	–	–	–
COC(=O)C1=CC2OC1(C)CCC2=O (configuration not stated)	–	> 100 µM	> 100 µM	> 100 µM	> 100 µM	> 100 µM	> 100 µM	–	–	–	–	–	–	–	–	–	–	–	–
O=C(O)/C=C/C(=O)N1C/C(=C\c2ccccc2)C(=O)/C(=C/c2ccccc2)C1	19 µM	21.1 µM	20.6 µM	11.8 µM	42.7 µM	31.1 µM	24.9 µM	37.9 µM	–	–	–	–	–	–	–	–	–	–	–
O=C1C2Nc3ccccc3SC2C(=O)N1c1ccccc1C(F)(F)F (configuration not stated)	> 100 µM	> 100 µM	–	46.2 µM	> 100 µM	> 100 µM	> 100 µM	> 100 µM	–	–	–	–	–	–	–	–	–	–	–
CCCNc1nc2ccccc2c2c1S(=O)(=O)c1ccc(Cl)cc1C2=O	> 50 µM	> 50 µM	–	> 50 µM	41.1 µM	> 50 µM	> 50 µM	0.475 µM	> 50 µM	1.51 µM	1.67 µM	3.06 µM	1.46 µM	1.11 µM	–	–	1.65 µM	1.57 µM	0.0899 µM
C[C@H]1C(=O)CC[C@]2(C)CCC(C(C)(C)O)CC12O (some centres not stated)	> 100 µM	> 100 µM	> 100 µM	> 100 µM	> 100 µM	> 100 µM	> 100 µM	> 100 µM	–	–	–	–	–	–	–	–	–	–	–
CC12Oc3ccc4ccccc4c3CC1Cc1c(ccc3ccccc13)O2 (configuration not stated)	–	> 100 µM	41.3 µM	> 100 µM	–	> 100 µM	> 100 µM	11 µM	–	–	–	–	–	–	–	–	–	–	–
COc1ccc(Nc2c3ccccc3nc3[nH]c4ccccc4c23)cc1	> 50 µM	> 50 µM	–	> 50 µM	–	> 50 µM	> 50 µM	–	33.9 µM	5.52 µM	8.9 µM	–	14 µM	38.9 µM	14.5 µM	> 50 µM	16.6 µM	6.47 µM	–
